We go through 3 compounds from patent US11542313B2, “Incretin analogs and uses thereof” (Eli Lilly and Company, priority 2017, dated 2023).

Values joined by “and” are separate entries in the source; they are usually repeats but may differ in a detail not shown here. Equal values may be shown once. Marks after values point to notes of the source that are not given here. *1 amine or outer side, *2 acyl side, *3 side chain or, on linkers, in order; H or OH if unused. Where a SMILES comes first, the peptide text is derived from it. Side-chain parts run from the residue outwards. [ ]: non-standard residue; d: D form. The star is where a group is joined. C20 diacid = O=C(O)CCCCCCCCCCCCCCCCCCC(=O)*; γGlu = O=C(O)[C@H](CCC(=O)[*:2])N[*:1]; αMeL = CC(C)C[C@](C)(N)C(=O)O; AEEA = NCCOCCOCC(=O)O; Aib = CC(C)(N)C(=O)O

The target of series [1] is T1, human glucagon receptor (GcgR) (Homo sapiens, UniProt P47871).
T1 construct: expressed in transfected cells; host or cells: HEK293 (membranes)
As to the kind of experiment: Radioligand competition binding (SPA), human GcgR membranes. The note with it: HEK293 membranes, SPA, bacitracin present; mean; read-out: Ki, GcgR. From the text: (§1) Radioligand competition binding assays are run to determine the equilibrium dissociation constant for exemplary compounds and comparator molecules.
(§2) Competition curves are plotted as the percent specific inhibition (y-axis) versus log concentration of compound (x-axis) and analyzed using a four parameter nonlinear regression fit with variable slope (ABase or Genedata).

The target in series [2] is T2, human GIP receptor (GIPR) (Homo sapiens, UniProt P48546).
T2 construct: expressed in transfected cells; host or cells: HEK293 (membranes)
T2 sequence (P48546 22-466): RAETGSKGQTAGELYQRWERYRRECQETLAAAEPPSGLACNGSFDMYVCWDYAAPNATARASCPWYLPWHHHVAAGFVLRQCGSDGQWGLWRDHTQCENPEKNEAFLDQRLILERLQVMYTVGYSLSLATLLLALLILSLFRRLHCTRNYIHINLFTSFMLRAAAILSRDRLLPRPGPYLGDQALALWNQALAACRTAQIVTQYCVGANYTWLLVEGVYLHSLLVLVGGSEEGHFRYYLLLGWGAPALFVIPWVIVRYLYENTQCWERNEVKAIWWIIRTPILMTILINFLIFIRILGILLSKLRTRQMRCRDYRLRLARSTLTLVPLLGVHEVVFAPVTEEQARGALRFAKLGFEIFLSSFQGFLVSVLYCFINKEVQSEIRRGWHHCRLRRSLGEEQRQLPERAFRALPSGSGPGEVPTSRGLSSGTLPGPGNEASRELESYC
Put plainly: Radioligand competition binding (SPA), human GIPR membranes. The note with it: HEK293 membranes, SPA, bacitracin present; mean; read-out: Ki, GIPR.
Text: as §1, §2

Series [3] concerns the target T3, GLP-1 receptor (GLP-1R) (Homo sapiens, UniProt P43220).
T3 construct: expressed in transfected cells; host or cells: HEK293 (membranes)
Put plainly: Radioligand competition binding (SPA), human GLP-1R membranes. The note with it: HEK293 membranes, SPA, bacitracin present; mean; read-out: Ki, GLP-1R.
Text: as §1, §2

For series [4], the target named is T4, hGcgR (Homo sapiens, UniProt P47871).
T4 construct: expressed in transfected cells; host or cells: HEK293
Put plainly: cAMP assay in HEK293 cells expressing hGcgR, 0.1% casein. In kind it is cell-based. The note with it: in the presence of 0.1% casein; read-out: cAMP EC50, GcGR.

In series [5] the target is T5, hGIPR (Homo sapiens, UniProt P48546).
T5 construct: expressed in transfected cells; host or cells: HEK293
T5 sequence (P48546 22-466): T2 sequence (P48546 22-466)
Put plainly: cAMP assay in HEK293 cells expressing hGIPR, 0.1% casein. Format: cell-based. The note with it: in the presence of 0.1% casein; read-out: cAMP EC50, GIPR.

Series [6] concerns the target hGLP-1R (Homo sapiens, UniProt P43220). As to the kind of experiment: cAMP assay in HEK293 cells expressing hGLP-1R, 0.1% casein. Format: cell-based. The note with it: in the presence of 0.1% casein; read-out: cAMP EC50, GLP-1R.
The conditions of series [7]: rat, in vivo, sc, 100 nmol/kg.
Experimental: (§3) The pharmacokinetics of the exemplary analogs are evaluated following a single subcutaneous administration of 100 nM/kg to male Sprague Dawley rats. Blood samples are collected over 120 hours, and resulting individual plasma concentrations are used to calculate pharmacokinetic parameters. Peptide plasma (K3 EDTA) concentrations are determined using a qualified LC/MS method that measured the intact mass of the analog. Each peptide and an analog as an internal standard are extracted from 100% specie specified plasma using methanol with 0.1% formic acid. A Thermo Q-Exactive, High Resolution Instrument, and a Thermo Easy Spray PepMap are combined for LC/MS detection.
Series [8] can be described thus: in vivo. The note with it: male, Sprague-Dawley, rat, sc, 100 nmol/kg.
Experimental: as §3
Series [9] deals with male Wistar rats. As to the kind of experiment: Intravenous glucose tolerance test (ivGTT), insulin secretion in male Wistar rats. Format: in vivo, rat. Also noted: unit not given here. The note with it: semaglutide 10 nmol/kg positive control in the run of the Example, mean ± SEM, n=6. The method, then: An intravenous glucose tolerance test (ivGTT) in rats (male Wistar) is used to estimate insulinotropic potency of the exemplary analogs. The GLP-1 RA semaglutide is used as a positive control. Rats with surgically implanted cannulas in the jugular vein and carotid artery (Envigo, Indianapolis, Ind.; 280-320 grams) are housed one per cage in polycarbonate cages with filter tops. Rats are maintained on a 12-hour light-dark cycle at 21° C. and receive 2014 Teklad Global Diet (Envigo, Indianapolis) and deionized water ad libitum. Rats are randomized by body weight and dosed 1.5 mL/kg subcutaneous (sc) with exemplary analogs 16 hours prior to glucose administration, and then fasted. Stock concentrations of […] of the exemplary analogs are diluted in Tris buffer pH 8.0 to 6.667 nMol/mL, 2.0 nMol/mL, 0.667 nMol/mL, 0.2 nMol/mL; doses tested are vehicle, 1, 3 and 10 nMol/kg, and, in some cases 0.3 and 30 nMol/kg. Semaglutide is used as positive control, and its insulinotropic effects are measured both in its own test (vehicle and 1, 3, 10 and 30 nMol/kg doses) and in connection with each run of the exemplary analogs (10 nMol/kg dose).
A time 0 blood sample is collected into EDTA tubes after which glucose is administered ([…], 5 mL/kg). […] Plasma insulin is determined using an electrochemiluminescence assay (Meso Scale, Gaithersburg, Md.). […]

In series [10] the test system is diet-induced obese (DIO) C57BL/6 mice. Put plainly: Diet-induced obese C57BL/6 mice, 15-day study. Format: in vivo, mouse. The note with it: for Body weight % change: days 1 to 15, DIO mice. On the procedure: The exemplary incretin analogs as described herein are proposed as a treatment not only for diabetes but also for metabolic syndrome, which is a collection of co-morbidities (dyslipidemia, obesity, hepatic steatosis, etc.) associated with insulin resistance and diabetes. To investigate the effects of the exemplary analogs on parameters such as weight loss, metabolism, body composition and hepatic steatosis, they were dosed to C57BL/6 diet-induced obese (DIO) mice. These animals, although not diabetic, display insulin resistance, dyslipidemia and hepatic steatosis, all characteristics of metabolic syndrome, after being placed on a high-fat diet for 18 weeks.
Specifically, DIO male C57BL/6 mice 24 to 25 weeks old maintained on a calorie-rich diet are used in the following studies. Mice are individually housed in a temperature-controlled (24° C.) facility with 12-hour light/dark cycle (lights on 22:00) and free access to food (TD95217) and water. After a minimum of 2 weeks acclimation to the facility, the mice are randomized according to their body weight, so each experimental group of animals would have similar body weight. The body weights range from 40 to 51 g.
All groups contain 5-6 mice. Vehicle, exemplary analogs dissolved in vehicle (40 mM Tris-HCl at pH 8.0), and semaglutide dissolved in vehicle are administered by subcutaneous (SC) injection (10 mL/kg) to ad libitum fed DIO mice 30 to 90 minutes prior to the onset of the dark cycle every 3 days for 15 days. SC injections are made on Day 1, 4, 7, 10 and 13. Body weight and food intake are measured daily throughout the study.
Absolute changes in body weight are calculated by subtracting the body weight of the same animal prior to the first injection of vehicle, analog or semaglutide. On Days 0 and 15, total fat mass is measured by nuclear magnetic resonance (NMR) using an Echo Medical System Instrument (Houston, Tex.). On Day 15, animals are sacrificed prior to dark photoperiod, and the livers are removed and frozen. Liver triglycerides, determined from homogenates of livers collected at sacrifice, and plasma cholesterol are measured on a Hitachi Modular P clinical analyzer.
Data are presented as mean±SEM of 5-6 animals per group in Tables 7 and 8 below. Statistical analysis is performed using repeated measures ANOVA, followed by Dunnett's method for multiple comparisons. Significant differences are identified at p<0.05.

Setting [11] is: 3 nmol/kg, after fifteen days, DIO mice, mean ± SEM.

T1 sequence (P47871 26-477): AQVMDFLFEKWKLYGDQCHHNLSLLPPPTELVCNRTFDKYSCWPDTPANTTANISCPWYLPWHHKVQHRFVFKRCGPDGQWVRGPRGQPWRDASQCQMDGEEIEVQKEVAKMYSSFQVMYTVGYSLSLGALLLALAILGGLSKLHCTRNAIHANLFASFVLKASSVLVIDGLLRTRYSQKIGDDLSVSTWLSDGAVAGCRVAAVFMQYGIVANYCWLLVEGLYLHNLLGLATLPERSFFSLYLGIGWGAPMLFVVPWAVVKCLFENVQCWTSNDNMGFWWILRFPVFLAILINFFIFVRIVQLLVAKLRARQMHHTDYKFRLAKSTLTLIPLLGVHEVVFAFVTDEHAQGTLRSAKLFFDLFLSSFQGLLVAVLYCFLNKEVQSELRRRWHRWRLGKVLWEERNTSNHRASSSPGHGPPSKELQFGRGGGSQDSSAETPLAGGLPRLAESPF
T4 sequence (P47871 26-477): as above
Chain of hGLP-1R (P43220 24-463): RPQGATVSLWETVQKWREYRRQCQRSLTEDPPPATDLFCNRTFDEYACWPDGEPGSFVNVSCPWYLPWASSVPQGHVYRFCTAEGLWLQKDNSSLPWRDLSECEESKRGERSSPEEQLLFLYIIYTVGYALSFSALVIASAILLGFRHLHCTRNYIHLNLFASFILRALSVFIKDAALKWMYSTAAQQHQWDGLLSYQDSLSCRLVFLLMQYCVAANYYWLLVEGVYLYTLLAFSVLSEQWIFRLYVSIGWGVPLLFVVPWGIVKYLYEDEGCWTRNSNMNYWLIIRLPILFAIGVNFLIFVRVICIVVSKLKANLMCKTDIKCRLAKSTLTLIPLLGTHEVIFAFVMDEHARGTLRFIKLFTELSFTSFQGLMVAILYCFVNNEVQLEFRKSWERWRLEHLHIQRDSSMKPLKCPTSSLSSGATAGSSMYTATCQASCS
T3 sequence (P43220 24-463): as above

Take `CC[C@H](C)[C@H](NC(=O)[C@H](Cc1ccccc1)NC(=O)[C@H](C)NC(=O)C(C)(C)NC(=O)[C@H](CCC(N)=O)NC(=O)[C@H](C)NC(=O)[C@H](CCCCNC(=O)COCCOCCNC(=O)CC[C@H](NC(=O)CCCCCCCCCCCCCCCCCCC(=O)O)C(=O)O)NC(=O)[C@H](CCCCN)NC(=O)[C@H](CC(=O)O)NC(=O)[C@H](CC(C)C)NC(=O)[C@H](CC(C)C)NC(=O)[C@@H](NC(=O)[C@H](CO)NC(=O)[C@H](Cc1ccc(O)cc1)NC(=O)[C@H](CC(=O)O)NC(=O)[C@H](CO)NC(=O)[C@@H](NC(=O)[C@H](Cc1ccccc1)NC(=O)[C@@H](NC(=O)CNC(=O)[C@H](CCC(N)=O)NC(=O)C(C)(C)NC(=O)[C@@H](N)Cc1ccc(O)cc1)[C@@H](C)O)[C@@H](C)O)[C@@H](C)CC)C(=O)N[C@@H](CCC(=O)O)C(=O)N[C@@H](Cc1ccc(O)cc1)C(=O)N[C@@H](CC(C)C)C(=O)N[C@@H](CC(C)C)C(=O)N[C@@H](C)C(=O)NC(C)(C)C(=O)NCC(=O)N1CCC[C@H]1C(=O)N[C@@H](CO)C(=O)N[C@@H](CO)C(=O)NCC(=O)N[C@@H](C)C(=O)N1CCC[C@H]1C(=O)N1CCC[C@H]1C(=O)N1CCC[C@H]1C(=O)N[C@@H](CO)C(N)=O` [Example 4] (H-Y[Aib]QGTFTSDYSILLDKK([AEEA-γGlu-C20 diacid])AQ[Aib]AFIEYLLA[Aib]GPSSGAPPPS-NH2): the figures for the Ki in series [1], in series [2] and in series [3] were 2.55 nM, 0.0374 nM and 3.54 nM, respectively. In addition, the figures for the EC50 in [4], in series [5] and in [6] were 0.0674 nM, 0.0648 nM and 0.18 nM, respectively. Moreover, the AUCINF_D_obs in series [7] amounted to 140 hr*kg*nmol/L/nmol. In series [8], this compound showed a CL/F of 0.12 mL/min/kg. Besides, the Tmax in [8] is 16 h. Moreover, the half-life in [8] is 19.9 h.

As for `CC[C@H](C)[C@H](NC(=O)[C@H](Cc1ccccc1)NC(=O)[C@H](C)NC(=O)C(C)(C)NC(=O)[C@H](CCC(N)=O)NC(=O)[C@H](C)NC(=O)[C@H](CCCCNC(=O)COCCOCCNC(=O)CC[C@H](NC(=O)CCCCCCCCCCCCCCCCCCC(=O)O)C(=O)O)NC(=O)[C@H](CCCCN)NC(=O)[C@H](CC(=O)O)NC(=O)[C@H](CC(C)C)NC(=O)[C@](C)(CC(C)C)NC(=O)[C@@H](NC(=O)[C@H](CO)NC(=O)[C@H](Cc1ccc(O)cc1)NC(=O)[C@H](CC(=O)O)NC(=O)[C@H](CO)NC(=O)[C@@H](NC(=O)[C@H](Cc1ccccc1)NC(=O)[C@@H](NC(=O)CNC(=O)[C@H](CCC(N)=O)NC(=O)C(C)(C)NC(=O)[C@@H](N)Cc1ccc(O)cc1)[C@@H](C)O)[C@@H](C)O)[C@@H](C)CC)C(=O)N[C@@H](CCC(=O)O)C(=O)N[C@@H](Cc1ccc(O)cc1)C(=O)N[C@@H](CC(C)C)C(=O)N[C@@H](CC(C)C)C(=O)N[C@@H](CCC(=O)O)C(=O)NC(C)(C)C(=O)NCC(=O)N1CCC[C@H]1C(=O)N[C@@H](CO)C(=O)N[C@@H](CO)C(=O)NCC(=O)N[C@@H](C)C(=O)N1CCC[C@H]1C(=O)N1CCC[C@H]1C(=O)N1CCC[C@H]1C(=O)N[C@@H](CO)C(N)=O` [Example 13] (H-Y[Aib]QGTFTSDYSI[αMeL]LDKK([AEEA-γGlu-C20 diacid])AQ[Aib]AFIEYLLE[Aib]GPSSGAPPPS-NH2), the figures for the Ki in [1], in series [2] and in series [3] were 1.91 nM, 0.0452 nM and 6.43 nM, respectively. The EC50 in series [4] stood at 0.0815 nM; in [5], 0.0391 nM; in series [6], 0.125 nM. For the same compound, the AUCINF_D_obs in series [7] turned out to be 205.7 hr*kg*nmol/L/nmol. This compound also showed a CL/F in series [8] of 0.0817 mL/min/kg. In [8], the Tmax was found to be 20 h. This compound had a half-life in series [8] of 21.7 h.

For the compound semaglutide, the “AUC30min of Insulin after a Bolus IV Glucose” value in series [9] was 44.7 +/− 3.7* and 55.1 +/− 9.0* and 40.2 +/− 2.5* and 38.4 +/− 6.0* and 56.3 +/− 7.7* and 48.4 +/− 6.6* and 51.86 +/− 6.7* and 45.6 +/− 6.6*. In series [10] (3 nmol/kg SC every 3 days), the “Body weight % change” value is on record as −2.62 ± 0.49%. In addition, in [10] (setting [11]), the ALT is reported as 99.8 ± 14.84 IU/L, the Cholesterol was 218.0 ± 9.23 mg/dL, the Glucose was determined as 137.8 ± 7.34 mg/dL and the “Liver Triglycerides” value amounted to 226.4 ± 23.8 mg/g tissue. Besides, the “Plasma Insulin” value in series [10] (setting [11]) came to 4196 ± 1014 pg/mL. The “Body weight % change” value in series [10] (10 nmol/kg SC every 3 days) is reported as −10.31 ± 1.25%. In addition, the “Body weight % change” value in series [10] (30 nmol/kg SC every 3 days) is −15.49 ± 2.44%.
